Data set [1] deals with Mus musculus. As to the kind of experiment: Anti-inflammatory activity in carrageenan-induced Mus musculus Swiss albino (mouse) paw edema model assessed as inhibition of paw edema at 100 mg/kg, sc administered 30 min prior to carrageenan injection measured after 270 min. The format is functional. Particulars: route subcutaneous.
The subject of data set [2] is Mus musculus. The data set can be described thus: Anti-inflammatory activity in carrageenan-induced Mus musculus Swiss albino (mouse) paw edema model assessed as paw swelling at 100 mg/kg, sc administered 30 min prior to carrageenan injection measured after 180 min (reference value: 51.0 +/-3.0 x10'-2 mm). The format is functional. As to conditions: route subcutaneous.

The test system of data set [3] is Mus musculus. As to the kind of experiment: Anti-inflammatory activity in carrageenan-induced Mus musculus Swiss albino (mouse) paw edema model assessed as paw swelling at 100 mg/kg, sc administered 30 min prior to carrageenan injection measured after 270 min (rvb = 75.0 +/-3.0 x10'-2 mm). As to conditions: route subcutaneous. It counts as functional.
Data set [4] relates to Mus musculus. The data set can be described thus: Anti-inflammatory activity in carrageenan-induced Mus musculus Swiss albino (mouse) paw edema model assessed as paw swelling at 100 mg/kg, sc administered 30 min prior to carrageenan injection measured after 360 min (reference value: 77.0 +/-3.0 x10'-2 mm). Particulars: route subcutaneous. It counts as functional.
Data set [5] is filed under the species Mus musculus. As to the kind of experiment: Acute toxicity against Mus musculus Swiss albino (mouse) assessed as morbidity after 48 hr. It counts as organism-based. Particulars: in vivo.
The test system of data set [6] is Mus musculus. The data set can be described thus: Anti-inflammatory activity in carrageenan-induced Mus musculus Swiss albino (mouse) paw edema model assessed as inhibition of paw edema at 100 mg/kg, sc administered 30 min prior to carrageenan injection measured after 360 min. The format is functional. As to conditions: route subcutaneous.
For data set [7], the system named is Mus musculus. As to the kind of experiment: Analgesic activity in Mus musculus Swiss albino (mouse) assessed as inhibition of p-benzoquinone-induced abdominal writhing at 100 mg/kg, sc administered 30 min prior to PBQ injection measured after 5 min for 15 min. The format is functional, Abdomen. Also noted: scale not given: the % may be the effect or the level left. Particulars: route subcutaneous.

Data set [8] relates to Mus musculus. As to the kind of experiment: Anti-inflammatory activity in carrageenan-induced Mus musculus Swiss albino (mouse) paw edema model assessed as inhibition of paw edema at 100 mg/kg, sc administered 30 min prior to carrageenan injection measured after 180 min. Particulars: route subcutaneous. It counts as functional.
The subject of data set [9] is Mus musculus. As to the kind of experiment: Anti-inflammatory activity in carrageenan-induced Mus musculus Swiss albino (mouse) paw edema model assessed as paw swelling at 100 mg/kg, sc administered 30 min prior to carrageenan injection measured after 90 min (reference value: 38.0 +/-2.0 x10'-2 mm). Particulars: route subcutaneous. The format is functional.
The species named for data set [10] is Mus musculus. As to the kind of experiment: Acute toxicity against Mus musculus Swiss albino (mouse) assessed as mortality after 48 hr. It counts as organism-based. Particulars: in vivo.
Data set [11] concerns Mus musculus. The data set can be described thus: Anti-inflammatory activity in carrageenan-induced Mus musculus Swiss albino (mouse) paw edema model assessed as inhibition of paw edema at 100 mg/kg, sc administered 30 min prior to carrageenan injection measured after 90 min. The format is functional. As to conditions: route subcutaneous.
Data set [12] relates to Raji. As to the kind of experiment: Anticancer activity against Homo sapiens (human) Raji cells assessed as cell viability at 50 uM after 48 hr by MTT assay (reference value: 100 +/-4.26%). The format is functional. As to conditions: read-out: Activity.
The subject of data set [13] is HL-60. The data set can be described thus: Anticancer activity against Homo sapiens (human) HL60 cells assessed as cell viability at 50 uM after 24 hr by MTT assay (reference value: 100 +/-3.55%). It counts as functional. Particulars: HL-60, 24 h, read-out: Activity.
For data set [14], the system named is MCF7. As to the kind of experiment: Anticancer activity against Homo sapiens (human) MCF7 cells assessed as cell viability at 50 uM after 48 hr by MTT assay (100 +/-5.08%). It counts as functional. Particulars: MCF7, 48 h, read-out: Activity.
The test system of data set [15] is MDA-MB-231. The data set can be described thus: Anticancer activity against Homo sapiens (human) estrogen-independent MDA-MB-231 cells assessed as cell viability at 50 uM after 24 hr by MTT assay (reference value: 100 +/-7.08%). The format is functional. As to conditions: MDA-MB-231, 24 h, read-out: Activity.
Data set [16] concerns MDA-MB-231. The data set can be described thus: Anticancer activity against Homo sapiens (human) estrogen-independent MDA-MB-231 cells assessed as cell viability at 50 uM after 48 hr by MTT assay (reference value: 100 +/-3.71%). It counts as functional. Particulars: MDA-MB-231, 48 h, read-out: Activity.
The test system of data set [17] is Raji. The data set can be described thus: Anticancer activity against Homo sapiens (human) Raji cells assessed as cell viability at 50 uM after 24 hr by MTT assay (reference value: 100 +/-5.02%). The format is functional. Particulars: read-out: Activity.
For data set [18], the system named is MCF7. The data set can be described thus: Anticancer activity against Homo sapiens (human) MCF7 cells assessed as cell viability at 50 uM after 24 hr by MTT assay (reference value: 100 +/-2.74%). It counts as functional. Particulars: MCF7, 24 h, read-out: Activity.
Data set [19] relates to HeLa. As to the kind of experiment: Anticancer activity against Homo sapiens (human) HeLa cells assessed as cell viability at 50 uM after 48 hr by MTT assay (reference value: 100 +/-3.8%). It counts as functional. As to conditions: read-out: Activity.
For data set [20], the system named is HeLa. The data set can be described thus: Anticancer activity against Homo sapiens (human) HeLa cells assessed as cell viability at 50 uM after 24 hr by MTT assay (reference value: 100 +/-4.13%). It counts as functional. As to conditions: read-out: Activity.
In data set [21] the test system is HL-60. The data set can be described thus: Anticancer activity against Homo sapiens (human) HL60 cells assessed as cell viability at 50 uM after 48 hr by MTT assay (reference value: 100 +/-8.41%). As to conditions: HL-60, 48 h, read-out: Activity. The format is functional.

Take `COc1ccc(CN2CCN(C(=O)c3cc(-c4ccc(C)cc4)nn3Cc3ccccc3)CC2)c(OC)c1OC`: the inhibition in vivo at 100 mg/kg with Mus musculus [1] was 74.4%; in the data set with Mus musculus [6], 53.3%; with Mus musculus [8], 44.7%; with Mus musculus [11] it was 17.8%. Besides, the Activity is listed as 28 ×10⁻² mm in the data set with Mus musculus [2]; 19 ×10⁻² mm in the data set on Mus musculus [3]; 36 ×10⁻² mm in the data set on Mus musculus [4]; “Non-toxic” in the data set filed under Mus musculus [5]; 53% with Mus musculus [7]; 31 ×10⁻² mm with Mus musculus [9]. In the data set listed under Mus musculus [10], the Activity result was “Non-toxic”.

In the case of `Cc1ccc(-c2cc(C(=O)NNc3ccc4ccccc4n3)n(Cc3ccccc3)n2)cc1`, the inhibition in vivo at 100 mg/kg came out at 44.4% in the data set on Mus musculus [1], 42.8% with Mus musculus [6], 24.1% in the data set with Mus musculus [8] and 23% in the data set with Mus musculus [11]. The Activity in the data set with Mus musculus [2] is 39 ×10⁻² mm; with Mus musculus [3] it was 42 ×10⁻² mm; in the data set with Mus musculus [4], 44 ×10⁻² mm; in the data set listed under Mus musculus [5] it was “Non-toxic”; in the data set on Mus musculus [7], 48.9%; with Mus musculus [9], 29 ×10⁻² mm. Moreover, in the data set listed under Mus musculus [10], the Activity result was “Non-toxic”.

As to `Cc1ccc(-c2cc(C(=O)Oc3ccc(C(C)(C)C)cc3)nn2Cc2ccccc2)cc1`, the viability at 50 µM came to 95.3% with Raji [12]; 134% in the data set with HL-60 [13]; 92.4% in the data set on MCF7 [14]; 93.7% with MDA-MB-231 [15]; 70.5% in the data set with MDA-MB-231 [16]; 111% in the data set with Raji [17]. Moreover, the viability at 50 µM with MCF7 [18] stood at 90.9%; with HeLa [19], 62.1%; in the data set on HeLa [20], 118%; in the data set with HL-60 [21] it was 69.7%. For the same compound, the inhibition in vivo at 100 mg/kg with Mus musculus [1] was 54%; with Mus musculus [6], 58.7%; in the data set on Mus musculus [8], 28.5%; in the data set on Mus musculus [11], 26%. In addition, the Activity is given as 37 ×10⁻² mm with Mus musculus [2]; 34 ×10⁻² mm in the data set with Mus musculus [3]; 32 ×10⁻² mm with Mus musculus [4]; “Non-toxic” in the data set listed under Mus musculus [5]; 73.4% with Mus musculus [7]; 28 ×10⁻² mm with Mus musculus [9]. Also, the Activity entry in the data set listed under Mus musculus [10] is “Non-toxic”.

As to `Cc1ccc(-c2cc(C(=O)Oc3ccc(C(C)C)cc3)nn2Cc2ccccc2)cc1`, the viability at 50 µM came out at 97% in the data set with Raji [12]; 120% in the data set with HL-60 [13]; 82.6% with MCF7 [14]; 106% in the data set with MDA-MB-231 [15]; 66.2% in the data set with MDA-MB-231 [16]; 90.1% in the data set on Raji [17]. Moreover, the viability at 50 µM with MCF7 [18] was found to be 79.6%; in the data set with HeLa [19] it was 54.6%; in the data set on HeLa [20] it was 79.6%; with HL-60 [21] it was 83.6%. The inhibition in vivo at 100 mg/kg in the data set on Mus musculus [1] is 50.4%; with Mus musculus [6], 47.8%; in the data set with Mus musculus [8] it was 18.7%; with Mus musculus [11] it was 27.4%. In addition, the Activity with Mus musculus [2] is listed as 42 ×10⁻² mm; with Mus musculus [3] it was 37 ×10⁻² mm; in the data set on Mus musculus [4], 40 ×10⁻² mm; in the data set listed under Mus musculus [5], “Non-toxic”; in the data set with Mus musculus [7] it was 45.7%; in the data set on Mus musculus [9], 27 ×10⁻² mm. Moreover, the Activity result in the data set filed under Mus musculus [10] is on record as “Non-toxic”.

(Values after ChEMBL document CHEMBL3045001, “Synthesis and evaluation of analgesic, anti-inflammatory, and anticancer activities of new pyrazole-3(5)-carboxylic acid derivatives” (Med Chem Res, 2013).)
